Assay results reported in ChEMBL document CHEMBL1201862, “PubChem BioAssay data set” (2004).
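Exposure lasted 48 hours, with cells grown in 96-well plates and compounds tested at five concentrations. GI50 is the concentration that inhibits growth by half.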 Calls of active or inactive are those of the source. Rule as the data show it: active = GI50 up to about 1.1 µM and inactive = higher.

How the values were obtained:
Assay in all cases: inhibition of tumour cell growth, NCI panel, 48 h
[1] = tested on: ACHN
[2] = tested on: DU-145
[3] = tested on: HCT-15
[4] = tested on: HT-29
[5] = tested on: Hs-578T
[6] = tested on: IGROV-1
[7] = tested on: KM12
[8] = tested on: Malme-3M
[9] = tested on: NCI-H226
[10] = tested on: NCI/ADR-RES
[11] = tested on: OVCAR-4
[12] = tested on: OVCAR-8
[13] = tested on: RXF 393
[14] = tested on: SF-268
[15] = tested on: SN12C
[16] = tested on: SW-620
[17] = tested on: U-251
[18] = tested on: CCRF-CEM
[19] = tested on: RPMI-8226

Compound	GI50 [1]	GI50 [2]	GI50 [3] [µM]	GI50 [4]	GI50 [5]	GI50 [6]	GI50 [7]	GI50 [8]	GI50 [9]	GI50 [10]	GI50 [11]	GI50 [12]	GI50 [13]	GI50 [14]	GI50 [15]	GI50 [16]	GI50 [17]	GI50 [18]	GI50 [19]
Cc1ccc(S(=O)(=O)C2=C([Si](C)(C)C)C3CC2[C@@H]2C4C=CC(CC4)[C@H]32)cc1 (some centres undefined)	99.5 µM (inactive)	> 100 µM (inactive)	> 100	> 100 µM (inactive)	39.1 µM (inactive)	85.5 µM (inactive)	> 100 µM (inactive)	> 100 µM (inactive)	95.3 µM (inactive)	> 100 µM (inactive)	> 100 µM (inactive)	> 100 µM (inactive)	33.5 µM (inactive)	38.1 µM (inactive)	> 100 µM (inactive)	> 100 µM (inactive)	23.9 µM (inactive)	–	–
COC(=NCCC1=CCCCC1)OC	> 100 µM (inactive)	> 100 µM (inactive)	82	18.2 µM (inactive)	> 100 µM (inactive)	32.8 µM (inactive)	78.9 µM (inactive)	31.2 µM (inactive)	–	58.9 µM (inactive)	> 100 µM (inactive)	75.7 µM (inactive)	> 100 µM (inactive)	> 100 µM (inactive)	–	62.8 µM (inactive)	71.3 µM (inactive)	8.71 µM (inactive)	32.1 µM (inactive)
CN1N=C(c2ccncc2)OC1c1cccc(C(F)(F)F)c1 (centres undefined)	> 100 µM (inactive)	> 100 µM (inactive)	> 100	> 100 µM (inactive)	> 100 µM (inactive)	> 100 µM (inactive)	> 100 µM (inactive)	–	58.9 µM (inactive)	> 100 µM (inactive)	> 100 µM (inactive)	> 100 µM (inactive)	> 100 µM (inactive)	> 100 µM (inactive)	> 100 µM (inactive)	> 100 µM (inactive)	> 100 µM (inactive)	> 100 µM (inactive)	> 100 µM (inactive)
CC1=NN(C(=O)CC(=O)Nc2ccc(C)cc2)C(=O)C1/N=N/c1ccc(C(=O)O)cc1 (centres undefined)	> 100 µM (inactive)	> 100 µM (inactive)	> 100	> 100 µM (inactive)	85.7 µM (inactive)	> 100 µM (inactive)	> 100 µM (inactive)	> 100 µM (inactive)	–	> 100 µM (inactive)	> 100 µM (inactive)	> 100 µM (inactive)	> 100 µM (inactive)	> 100 µM (inactive)	> 100 µM (inactive)	> 100 µM (inactive)	> 100 µM (inactive)	> 100 µM (inactive)	> 100 µM (inactive)
Clc1ccc(C(c2ccc(Cl)cc2)c2cncnc2)cc1	19.2 µM (inactive)	17.5 µM (inactive)	19.6	15.1 µM (inactive)	18.3 µM (inactive)	16 µM (inactive)	18.3 µM (inactive)	19.1 µM (inactive)	–	18.7 µM (inactive)	15.2 µM (inactive)	20.3 µM (inactive)	12.6 µM (inactive)	17.8 µM (inactive)	18.4 µM (inactive)	–	17.3 µM (inactive)	17.5 µM (inactive)	34.4 µM (inactive)
Oc1ccc(/C=N/c2nccs2)c(O)c1	> 100 µM (inactive)	> 100 µM (inactive)	> 100	> 100 µM (inactive)	> 100 µM (inactive)	> 100 µM (inactive)	16 µM (inactive)	> 100 µM (inactive)	> 100 µM (inactive)	> 100 µM (inactive)	–	> 100 µM (inactive)	> 100 µM (inactive)	> 100 µM (inactive)	–	–	–	–	–
COC(=O)NC(C(F)(F)F)(C(F)(F)F)P1(=O)OCCCO1	21.4 µM (inactive)	53.8 µM (inactive)	22.8	23.8 µM (inactive)	37.4 µM (inactive)	22.3 µM (inactive)	22.8 µM (inactive)	–	16.2 µM (inactive)	39.4 µM (inactive)	32.6 µM (inactive)	27.3 µM (inactive)	2.74 µM (inactive)	25.7 µM (inactive)	34.8 µM (inactive)	20.7 µM (inactive)	13.1 µM (inactive)	12.6 µM (inactive)	18.1 µM (inactive)
O=C1C=CC(=O)N1n1c(-c2ccccc2)n[nH]c1=O	–	> 100 µM (inactive)	> 100	> 100 µM (inactive)	> 100 µM (inactive)	> 100 µM (inactive)	–	> 100 µM (inactive)	> 100 µM (inactive)	> 100 µM (inactive)	> 100 µM (inactive)	> 100 µM (inactive)	> 100 µM (inactive)	> 100 µM (inactive)	> 100 µM (inactive)	–	> 100 µM (inactive)	> 100 µM (inactive)	–
CC(=O)NCC1OC2COC(c3ccccc3)OC2C(NC(=O)c2ccccc2)C1OC(=O)c1ccccc1 (centres undefined)	> 100 µM (inactive)	> 100 µM (inactive)	> 100	> 100 µM (inactive)	> 100 µM (inactive)	–	> 100 µM (inactive)	> 100 µM (inactive)	> 100 µM (inactive)	> 100 µM (inactive)	> 100 µM (inactive)	> 100 µM (inactive)	35 µM (inactive)	> 100 µM (inactive)	60.3 µM (inactive)	> 100 µM (inactive)	> 100 µM (inactive)	> 100 µM (inactive)	–
N#CCCN(CCC#N)c1ccc(C(=N/c2ccc(F)cc2)/N=N/c2ccc(Cl)cc2)cc1	> 100 µM (inactive)	> 100 µM (inactive)	> 100	> 100 µM (inactive)	> 100 µM (inactive)	> 100 µM (inactive)	> 100 µM (inactive)	–	> 100 µM (inactive)	> 100 µM (inactive)	> 100 µM (inactive)	> 100 µM (inactive)	> 100 µM (inactive)	> 100 µM (inactive)	> 100 µM (inactive)	> 100 µM (inactive)	> 100 µM (inactive)	> 100 µM (inactive)	> 100 µM (inactive)
COc1ccccc1/C=C1\Sc2scc(-c3ccc(O)c(O)c3)[n+]2C1=O	16.7 µM (inactive)	21.4 µM (inactive)	16.5	21.4 µM (inactive)	88.3 µM (inactive)	15.9 µM (inactive)	32 µM (inactive)	–	27.9 µM (inactive)	27.3 µM (inactive)	26.8 µM (inactive)	39.9 µM (inactive)	17.7 µM (inactive)	58.9 µM (inactive)	22.5 µM (inactive)	15.9 µM (inactive)	27.8 µM (inactive)	2.57 µM (inactive)	13.8 µM (inactive)
CC(=O)OC1C2CCC1C1C2N=NN1c1ccc([N+](=O)[O-])cc1 (centres undefined)	> 100 µM (inactive)	> 100 µM (inactive)	> 100	> 100 µM (inactive)	> 100 µM (inactive)	> 100 µM (inactive)	> 100 µM (inactive)	> 100 µM (inactive)	> 100 µM (inactive)	> 100 µM (inactive)	> 100 µM (inactive)	> 100 µM (inactive)	–	> 100 µM (inactive)	> 100 µM (inactive)	> 100 µM (inactive)	> 100 µM (inactive)	> 100 µM (inactive)	> 100 µM (inactive)
